Results taken from ChEMBL document CHEMBL6121046, “Discovery of Novel Hydrazide-Based HDAC3 Inhibitors as Epigenetic Immunomodulators for Cancer Immunotherapy” (J Med Chem, 2025).
Active and inactive are the calls of the source. No cut-off for these calls is given here.

Legend:
[1] = system: Mus musculus; experiment: (§1) Immunomodulatory effect in C57BL/6 mouse allografted mouse MC38 cells assessed as increase in tumor infiltrating lymphocytes by measuring increase in CD4+ T helper cells in mouse spleen in presence of NP19 PD-L1 inhibitor at 50 mg/kg, po treated 5 days after cell inoculation 19 th day by flow cytometry analysis (reference value: 10.8%); format: functional; details: time 15 day
[2] = Cmax in Sprague-Dawley rat at 20 mg/kg, po measured upto 12 hrs by LC-MS/MS analysis; format: ADME, organism-based; details: in vivo
[3] = Clearance in Sprague-Dawley rat at 20 mg/kg, iv measured upto 12 hrs by LC-MS/MS analysis; format: ADME, organism-based; details: in vivo
[4] = MRT (0 to t) in Sprague-Dawley rat at 20 mg/kg, iv measured upto 12 hrs by LC-MS/MS analysis; format: ADME, organism-based; details: in vivo
[5] = Tmax in Sprague-Dawley rat at 20 mg/kg, iv measured upto 12 hrs by LC-MS/MS analysis; format: ADME, organism-based; details: in vivo
[6] = system: Mus musculus; experiment: (§2) Immunomodulatory effect in C57BL/6 mouse allografted mouse MC38 cells assessed as increase in tumor infiltrating lymphocytes by measuring increase in CD4+ T helper cells in tumor at 50 mg/kg, po treated 5 days after cell inoculation 19 th day by flow cytometry analysis (reference value: 2.57%); format: functional; details: time 15 day
[7] = system: Mus musculus; experiment: Induction of acetylated H3 level in tumor in C57BL/6 mouse allografted with mouse MC38 cells at 50 mg/kg, po treated 5 days after cell inoculation 19 th day by immunofluorescence analysis; format: functional, organism-based; details: time 15.0 day
[8] = system: Mus musculus; experiment: as §2, with “cells in mouse lymph nodes at 50” for “cells in tumor at 50”, “(reference value: 15.5%)” for “(reference value: 2.57%)”; format: functional; details: time 15 day
[9] = system: MC-38; experiment: Induction of mitochondrial membrane damage in mouse MC38 cells assessed as increase in JC-1 monomers by measuring green fluorescence at 1 uM measured after 48 hrs (reference value: 3.13%); format: functional
[10] = Volume of distribution at steady state in Sprague-Dawley rat at 20 mg/kg, po measured upto 12 hrs by LC-MS/MS analysis; format: ADME, organism-based; details: in vivo
[11] = Half life in Sprague-Dawley rat at 20 mg/kg, iv measured upto 12 hrs by LC-MS/MS analysis; format: ADME, organism-based; details: in vivo
[12] = system: Mus musculus; experiment: as §2, with “cells in mouse spleen at 50” for “cells in tumor at 50”, “(reference value: 10.8%)” for “(reference value: 2.57%)”; format: functional; details: time 15 day
[13] = system: Mus musculus; experiment: Immunomodulatory effect in C57BL/6 mouse allografted with mouse MC38 cells assessed as increase in tumor infiltrating lymphocytes by measuring increase in CD3+ CD4+ cells in presence of NP19 PD-L1 inhibitor at 50 mg/kg, po treated 5 days after cell inoculation 19 th day by flow cytometry analysis; format: functional, organism-based; details: time 15.0 day
[14] = system: MC-38; experiment: In vivo antitumor activity against mouse MC38 cells allografted in C57BL/6 mouse assessed as decrease in […] positive cells in tumor in presence of NP19 PD-L1 inhibitor at 50 mg/kg, po treated 5 days after cell inoculation 19 th day by immunofluorescence analysis; format: functional, organism-based; details: time 15.0 day
[15] = system: Mus musculus; experiment: Induction of acetylated H3 level in tumor in C57BL/6 mouse allografted with mouse MC38 cells in presence of NP19 PD-L1 inhibitor at 50 mg/kg, po treated 5 days after cell inoculation 19 th day by immunofluorescence analysis; format: functional, organism-based; details: time 15.0 day
[16] = system: Mus musculus; experiment: Immunomodulatory effect in C57BL/6 mouse allografted with mouse MC38 cells assessed as increase in tumor infiltrating lymphocytes by measuring increase in CD3+ CD4+ cells at 50 mg/kg, po treated 5 days after cell inoculation 19 th day by flow cytometry analysis; format: functional, organism-based; details: time 15.0 day
[17] = Toxicity in C57BL/6 mouse allografted with mouse MC38 cells assessed as body weight loss at 50 mg/kg, po treated 5 days after cell inoculation 19 th day; format: organism-based; details: in vivo, 360 h, time 15 day
[18] = Toxicity in C57BL/6 mouse allografted with mouse MC38 cells assessed as pathological changes in heart at 50 mg/kg, po treated 5 days after cell inoculation 19 th day by hematoxylin and eosin analysis; format: organism-based; details: in vivo, 360 h, time 15 day
[19] = system: MC-38; experiment: Induction of PD-L1 expression in mouse MC38 cells measured after 24 hrs incubation by immunofluorescence staining analysis; format: functional, cell-based; details: dose 1-4 µM
[20] = system: Mus musculus; experiment: Induction of PD-L1 expression in tumor in C57BL/6 mouse allografted with mouse MC38 cells at 50 mg/kg, po treated 5 days after cell inoculation 19 th day by immunofluorescence analysis; format: functional, organism-based; details: time 15.0 day
[21] = AUC (0 to infinity) in Sprague-Dawley rat at 20 mg/kg, po measured upto 12 hrs by LC-MS/MS analysis; format: ADME, organism-based; details: in vivo
[22] = system: Mus musculus; experiment: Immunomodulatory effect in C57BL/6 mouse allografted mouse MC38 cells assessed as increase in tumor infiltrating lymphocytes by measuring increase in CD4+ T helper cells in mouse blood at 50 mg/kg, po treated 5 days after cell inoculation 19 th day by flow cytometry analysis (reference value: 0.27%); format: functional; details: time 15 day
[23] = system: Mus musculus; experiment: as §1, with “CD8+” for “CD4+”, “tumor” for “mouse spleen”, “2.32%)” for “10.8%)”; format: functional; details: time 15 day
[24] = Volume of distribution at steady state in Sprague-Dawley rat at 20 mg/kg, iv measured upto 12 hrs by LC-MS/MS analysis; format: ADME, organism-based; details: in vivo, read-out: Vdss
[25] = system: MC-38; experiment: In vivo antitumor activity against mouse MC38 cells allografted in C57BL/6 mouse assessed as increase in Tunel-positive cells in tumor in presence of NP19 PD-L1 inhibitor at 50 mg/kg, po treated 5 days after cell inoculation 19 th day by immunofluorescence analysis; format: functional, organism-based; details: time 15.0 day
[26] = system: MC-38; experiment: Induction of ROS production in mouse MC38 cells assessed as increase in intracellular ROS level measured after 48 hrs by DCFH-DA/Brightfield - fluorescence imaging analysis; format: functional, cell-based
[27] = system: MC-38; experiment: Induction of mitochondrial membrane damage in mouse MC38 cells assessed as increase in JC-1 monomers by measuring green fluorescence at 2 uM measured after 48 hrs (reference value: 3.13%); format: functional
[28] = MRT (0 to t) in Sprague-Dawley rat at 20 mg/kg, po measured upto 12 hrs by LC-MS/MS analysis; format: ADME, organism-based; details: in vivo
[29] = Toxicity in C57BL/6 mouse allografted with mouse MC38 cells assessed as pathological changes in lung at 50 mg/kg, po treated 5 days after cell inoculation 19 th day by hematoxylin and eosin analysis; format: organism-based; details: in vivo, 360 h, time 15 day
[30] = AUC (0 to t) in Sprague-Dawley rat at 20 mg/kg, po measured upto 12 hrs by LC-MS/MS analysis; format: ADME, organism-based; details: in vivo
[31] = system: MC-38; experiment: Induction of PD-L1 expression in mouse MC38 cells in presence of JQ-1 BRD4 inhibitor at 2 uM measured after 24 hrs incubation by Western blot analysis; format: functional, cell-based
[32] = Toxicity in C57BL/6 mouse allografted with mouse MC38 cells assessed as body weight loss in presence of NP19 PD-L1 inhibitor at 50 mg/kg, po treated 5 days after cell inoculation 19 th day; format: organism-based; details: in vivo, 360 h, time 15 day
[33] = Oral bioavailability in Sprague-Dawley rat at 20 mg/kg measured upto 12 hrs by LC-MS/MS analysis; format: ADME, organism-based; details: in vivo

CCCNNC(=O)c1ccc(CNC(=O)c2cnc(-c3ccc4occc4c3)[nH]2)cc1
Activity [1]: 11.9% | Cmax [2]: 347 ng/mL | CL [3]: 27.8 mL/min/kg | MRT last at 12 h [4]: 1.19 h | Tmax [5]: 4.8 min | Activity [6]: 1.72% | Activity [7]: Active | Activity [8]: 20.3% | Activity [9]: 6.34% | Vdss [10]: 72.81 L/kg | half-life [11]: 1 h | Activity [12]: 12.9% | Activity [13]: Active | Activity [14]: Active | Activity [15]: Active | Activity [16]: Active | Activity [17]: Non-toxic | Activity [18]: Non-toxic | Activity [19]: Dose-dependent-effect | Activity [20]: Active | AUC [21]: 1429.8 ng·h/mL | Activity [22]: 0.84% | Activity [23]: 7.83% | Vd [24]: 2.35 L/kg | Activity [25]: Active | Activity [26]: Dose-dependent-effect | Activity [27]: 8% | MRT last at 12 h [28]: 4.2 h | Activity [29]: Non-toxic | AUC(0-t) at 12 h [30]: 1420 ng·h/mL | Activity [31]: Active | Activity [32]: Non-toxic | F [33]: 11.5%
